# Laboratory results taken from publication PMC6514686, “Tri-Cyclic Nucleobase Analogs and Their Ribosides as Substrates of Purine-Nucleoside Phosphorylases. II Guanine and Isoguanine Derivatives” (Molecules, 2019).
# Where two headings read alike, the source gives them in different places.
# Legend:
# [1] = target: T1, E. coli PNP (Escherichia coli, UniProt P0ABP8); test: phosphorolysis of nucleosides in phosphate buffer by E. coli PNP; assay type: biochemical; details: for phosphorolysis (in words): 50 mM phosphate buffer, pH 6.5
# T1 construct: made in house; host or cells: E. coli
# Experimental: (§1) For kinetic analyses, enzymatic ribosylation reactions were carried out in 1 mL cuvettes (pathlength 4 mm) in ~50 mM HEPES buffer, pH 7.3, using ca. 0.5 mM R1P as a ribose source. On a larger scale, reactions were run in Eppendorf tubes, volume 2–3 mL, using either R1P or 7-methylguanosine as ribose sources. Phosphorolysis reactions were run in 50 mM phosphate buffer, pH 7.0 or 6.5. Data were analyzed by standard methods (see Supplementary Materials).
# [2] = target: T1, E. coli PNP; test: inhibition of guanine ribosylation catalyzed by E. coli PNP; assay type: biochemical
# Experimental: We conclude that inability of the enzyme to ribosylate (2) is not due to geometric hindrance, but rather should be ascribed to unfavorable energetic factors, in accordance with previous reports about the relative instability of the glycosidic bond in this compound [23].
# (§2) N^2,3-etheno-O^6-methylguanine (3) effectively competes with guanine in the ribosylation process, acting as quasi inhibitor of the E. coli PNP, with estimated Kiapp value 7.5 ± 0.8 μM (competitive model; average of 3 determinations), in agreement with the Km value, estimated from kinetic data (see the previous paragraph).
# as §1
# [3] = target: T2, E.coli PNP-wt (purine-nucleoside phosphorylase) (Escherichia coli, UniProt P0ABP8); test: enzymatic ribosylation of nucleobase analogs by α-D-ribose-1-phosphate, E. coli PNP wild type; assay type: biochemical; details: for Vmax (relative): relative to Vmax of guanine ribosylation under the same conditions (=100), 40 mM HEPES, pH 7, error ~10%
# T2 construct: made in house; host or cells: E. coli
# T2 sequence (P0ABP8 2-239 limits assumed): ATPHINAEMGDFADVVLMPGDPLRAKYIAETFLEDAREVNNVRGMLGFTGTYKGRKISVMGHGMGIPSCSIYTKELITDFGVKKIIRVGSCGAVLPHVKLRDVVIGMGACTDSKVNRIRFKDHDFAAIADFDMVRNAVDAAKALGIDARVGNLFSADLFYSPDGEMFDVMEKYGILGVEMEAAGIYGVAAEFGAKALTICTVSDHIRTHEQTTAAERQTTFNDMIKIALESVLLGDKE
# Experimental: (§3) […] 0.5 mM R1P as a ribose source. On a larger scale, reactions were run in Eppendorf tubes, volume 2–3 mL, using either R1P or 7-methylguanosine as ribose sources. Phosphorolysis reactions were run in 50 mM phosphate buffer, pH 7.0 or 6.5. Data were analyzed by standard methods (see Supplementary Materials).
# (§4) Recombinant E. coli and calf spleen PNPs as well as their mutated forms were expressed in E. coli and purified according to the procedures described earlier.
# [4] = target: T3, calf PNP-wt (calf spleen purine-nucleoside phosphorylase) (Bos taurus, UniProt P55859); test: enzymatic ribosylation by α-D-ribose-1-phosphate, calf PNP wild type; assay type: biochemical; details: for Vmax (relative): relative to Vmax of guanine ribosylation under the same conditions (=100), 40 mM HEPES, pH 7, error ~10%
# T3 construct: made in house; host or cells: E. coli
# T3 sequence (P55859 1-289): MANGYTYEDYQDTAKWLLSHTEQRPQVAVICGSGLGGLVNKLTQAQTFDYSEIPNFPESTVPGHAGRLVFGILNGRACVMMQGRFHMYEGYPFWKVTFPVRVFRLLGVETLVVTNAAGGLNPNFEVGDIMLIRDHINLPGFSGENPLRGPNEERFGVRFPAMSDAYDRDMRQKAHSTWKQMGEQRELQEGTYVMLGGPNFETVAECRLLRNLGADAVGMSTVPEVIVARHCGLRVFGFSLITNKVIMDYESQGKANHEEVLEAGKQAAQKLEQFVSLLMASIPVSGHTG
# Experimental: as §1, §4
# [5] = ionization constants (spectrophotometric titrations)
# [6] = target: T4, calf PNP (Bos taurus, UniProt P55859); test: phosphorolysis of nucleosides in phosphate buffer by calf PNP; assay type: biochemical
# T4 construct: made in house; host or cells: E. coli
# T4 sequence (P55859 1-289): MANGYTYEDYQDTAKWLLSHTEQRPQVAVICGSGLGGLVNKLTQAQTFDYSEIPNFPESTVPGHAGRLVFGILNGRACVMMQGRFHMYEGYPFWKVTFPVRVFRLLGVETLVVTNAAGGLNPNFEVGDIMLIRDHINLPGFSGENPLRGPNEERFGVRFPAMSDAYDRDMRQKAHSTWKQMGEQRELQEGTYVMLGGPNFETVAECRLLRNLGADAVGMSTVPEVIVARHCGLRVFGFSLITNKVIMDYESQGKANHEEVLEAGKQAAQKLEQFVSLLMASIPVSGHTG
# Experimental: as §1
# [7] = target: T4, calf PNP; test: inhibition of guanine ribosylation catalyzed by calf PNP; assay type: biochemical; details: similar conditions as with E. coli PNP
# Experimental: as §2, §1
# [8] = target: T4, calf PNP; parameters: method as in PMID 29376769; details: cited from earlier work
# [9] = target: T1, E. coli PNP; parameters: method as in PMID 29376769; details: cited from earlier work
# [10] = target: T5, E.coli PNP-mutantD204N (Escherichia coli, UniProt P0ABP8, D205N); test: enzymatic ribosylation by α-D-ribose-1-phosphate, E. coli PNP D204N mutant; assay type: biochemical; details: for Vmax (relative): relative to Vmax of guanine ribosylation under the same conditions (=100), 40 mM HEPES, pH 7, error ~10%
# T5 construct: made in house; host or cells: E. coli
# T5 sequence (P0ABP8 2-239 D205N): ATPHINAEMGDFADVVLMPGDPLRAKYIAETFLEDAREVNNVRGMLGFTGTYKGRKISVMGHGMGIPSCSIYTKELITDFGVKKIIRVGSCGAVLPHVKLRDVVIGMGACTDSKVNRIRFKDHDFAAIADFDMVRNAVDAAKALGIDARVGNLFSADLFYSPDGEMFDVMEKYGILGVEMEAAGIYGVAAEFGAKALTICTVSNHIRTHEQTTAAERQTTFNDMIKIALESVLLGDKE
# Experimental: as §1, §4
# [11] = target: T6, calf PNP-mutantN243D (Bos taurus, UniProt P55859, N243D); test: enzymatic ribosylation by α-D-ribose-1-phosphate, calf PNP N243D mutant; assay type: biochemical
# T6 construct: made in house; host or cells: E. coli
# T6 sequence (P55859 1-289 N243D): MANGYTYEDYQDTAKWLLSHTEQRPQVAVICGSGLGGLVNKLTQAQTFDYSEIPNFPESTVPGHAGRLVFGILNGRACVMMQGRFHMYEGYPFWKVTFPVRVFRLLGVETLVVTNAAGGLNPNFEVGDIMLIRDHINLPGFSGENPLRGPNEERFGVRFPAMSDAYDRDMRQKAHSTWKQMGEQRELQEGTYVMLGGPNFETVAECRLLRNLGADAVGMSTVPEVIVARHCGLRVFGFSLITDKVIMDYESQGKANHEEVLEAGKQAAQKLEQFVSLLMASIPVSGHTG
# Experimental: as §1, §4
# [12] = substrate: O=c1c2[nH]cnc2nc2[nH]ccn12; test: enzymatic ribosylation of nucleobase analogs by α-D-ribose-1-phosphate, E. coli PNP wild type; assay type: biochemical; details: other: ribosylation, 40 mM HEPES buffer, pH 7, α-D-ribose-1-phosphate, standard errors ~15%
# Experimental: as §3, §4
# [13] = no reaction traces even with 10-fold higher enzyme concentrations
# [14] = aqueous, pKa ±0.1, lower (basic) value, protonation to the cation
# [15] = aqueous, pKa ±0.1, upper (acidic) value, deprotonation to the monoanion
# [16] = 40 mM HEPES buffer, pH 7, α-D-ribose-1-phosphate
molecule,measurement,setting,value
"1,N^6-etheno-N7-β-D-ribosylisoguanosine [N7-riboside (6)]",phosphorolysis (in words),[1],Even more rapid
"O=c1nc2[nH]ccn2c2nc[nH]c12 [N^2,3-ethenoguanine]",Ki,"[2]; guanine as substrate of the ribosylation reaction, possibly competitive inhibition, read-out: estimated Ki",38 µM
same,substrate activity in ribosylation (in words),[3]; [13],not a substrate
same,Vmax (relative),[3],<0.1
same,substrate activity in ribosylation (in words),[4]; [13],not a substrate
same,Vmax (relative),[4],<0.1
same,pKa,[5]; [14],~2.5
same,pKa,[5]; [15],8.8
"Nc1nc(=O)[nH]c2c1ncn2[C@@H]1O[C@H](CO)[C@@H](O)[C@H]1O [isoguanosine, reference compound]","Vmax of phosphorolysis, fold lower than that for guanosine",[1]; data not shown,ca. 40 fold
same,phosphorolysis (in words),[6],did not see any such reaction
"1,N^6-etheno-N^6-β-D-ribosylisoguanosine [N^6-riboside (7)]",phosphorolysis (in words),[1],much more rapidly
same,phosphorolysis (in words),[6],only slowly deribosylated
"O=c1c2ncn([C@@H]3O[C@H](CO)[C@@H](O)[C@H]3O)c2nc2[nH]ccn12 [1,N^2-ethenoguanosine]",phosphorolysis (in words),[6],no marked phosphorolysis
same,pKa,[5]; [15],8.8
"COc1nc2nccn2c2[nH]cnc12 [N^2,3-etheno-O^6-methylguanine]",Ki,"[2]; competition with guanine in ribosylation, competitive model, average of 3 determinations, read-out: estimated Kiapp",7.5 ± 0.8 µM
same,Vmax (relative),[3],~0.3
same,Vmax (relative),[4],<0.1
same,pKa,[5]; [14],~3.5
same,pKa,[5]; [15],~9
same,inhibition of guanine ribosylation (in words),[7],no such inhibition is observed
"OC[C@H]1O[C@@H](n2cnc3c2ncn2ccnc32)[C@H](O)[C@@H]1O [1,N^6-ethenoadenosine]",phosphorolysis (in words),[8],resistant
same,phosphorolysis (in words),[9],rapidly phosphorolysed
"1,N^6-ethenoisoguanine",Vmax (relative),[10],>5
same,Km,"[3]; 50 mM HEPS buffer, pH 7.3, R1P 0.5 mM, 25 °C (Figure S3), read-out: Km from double-reciprocal plots",98 µM
same,Vmax (relative),[3],~24
same,Km,"[3]; ribosylation, 40 mM HEPES buffer, pH 7, α-D-ribose-1-phosphate, standard errors ~15%, read-out: Km",98 µM
same,Vmax (relative),[4],1.6
same,Km,"[4]; ribosylation, 40 mM HEPES buffer, pH 7, α-D-ribose-1-phosphate, standard errors ~15%",~160 µM
same,Approximate Product Ratio: N9: N7-riboside: N^6-riboside,[11]; [16],predominantly N^6
same,Vmax (relative),"[11]; relative to Vmax of guanine ribosylation under the same conditions (=100), 40 mM HEPES, pH 7, error ~10%",~1
same,"pKa ±0.1, lower (basic) value","[5]; aqueous, protonation to the cation",3.5
same,"fitted pKa, lower (basic) value","[5]; spectrophotometric titration, pH 2.9 to 5.5, ±0.2 (Figure S2)",3.5
same,"fitted pKa, upper (acidic) value","[5]; spectrophotometric titration, pH 6.25 to 11.5, ±0.2 (Figure S2)",8.1
same,pH of probable second deprotonation,[5]; spectrophotometric titrations,~ 13
"O=c1[nH]c2c(ncn2[C@@H]2O[C@H](CO)[C@@H](O)[C@H]2O)c2nccn12 [N9-riboside (5), 1,N^6-etheno-N9-β-D-ribosylisoguanosine]",phosphorolysis (in words),[1],fairly rapid
same,phosphorolysis (in words),[6],not phosphorolysed
same,pKa,[5]; [14],2.4
same,pKa,[5]; [15],7.1
"O=c1c2nc[nH]c2[nH]c2nccn12 [1,N^2-ethenoguanine, 5,9-dihydro-9-oximidazo{1,2-a}purine]",Approximate Product Ratio: N9: N7-riboside: N^6-riboside,[10]; [16],predominantly N9
same,Vmax (relative),[10],>15
same,Approximate Product Ratio: N9: N7-riboside: N^6-riboside,[3]; [16],predominantly N9
same,Vmax (relative),[3],18
same,share of the one main product in the reaction mixture (HPLC),"[3]; ribosylation, product identical to the chemically generated nucleoside",> 95%
same,Approximate Product Ratio: N9: N7-riboside: N^6-riboside,[4]; [16],predominantly N9
same,"ribosylation rate, fold slower than the ribosylation of guanine","[4]; pH 7.3, HEPES buffer, 25 °C",ca. 100 fold
same,Vmax (relative),[4],<0.5
same,"ribosylation rate, fold slower than the ribosylation of guanine","[11]; pH 7.3, HEPES buffer, 25 °C",ca. 100 fold
same,pKa,[5]; [14],~2
same,pKa,[5]; [15],~9.5
"E.coli PNP-wt (purine-nucleoside phosphorylase) (Escherichia coli K-12) (protein, made in house; host or cells: E. coli) ATPHINAEMGDFADVVLMPGDPLRAKYIAETFLEDAREVNNVRGMLGFTGTYKGRKISVMGHGMGIPSCSIYTKELITDFGVKKIIRVGSCGAVLPHVKLRDVVIGMGACTDSKVNRIRFKDHDFAAIADFDMVRNAVDAAKALGIDARVGNLFSADLFYSPDGEMFDVMEKYGILGVEMEAAGIYGVAAEFGAKALTICTVSDHIRTHEQTTAAERQTTFNDMIKIALESVLLGDKE",Km,[12],48 µM
